Experimental data: ChEMBL document CHEMBL5634109, “Synthesis and mechanism of action of new purine derivatives against triple negative breast cancer” (Eur J Med Chem, 2023)
Activity calls are given as the source filed them. The calls are words filed in the database; no cut-off is given here.

Experiments:
MDA-MB-231 [1] = assay: Antitumor activity against human MDA-MB-231 cells xenografted in nude mouse assessed as decrease in Ki67 expression at 10 mg/kg, ip measured for 3 days by immunohistochemistry analysis; assay type: functional, organism-based; conditions: time 3.0 day
MDA-MB-231 [2] = assay: Antiproliferative activity against human MDA-MB-231 cells assessed as reduction in viability at 4 uM incubated for 7.5 hrs by MTT assay; assay type: functional
MDA-MB-231 [3] = assay: Induction of apoptosis in human MDA-MB-231 cells assessed as apoptotic cells at 4 uM incubated for 48 hrs by Annexin V-FITC/PI staining based analysis; assay type: functional
MDA-MB-231 [4] = assay: Antitumor activity against human MDA-MB-231 cells xenografted in nude mouse assessed as decrease in tumor size at 10 to 20 mg/kg, ip measured for 3 days; assay type: functional, organism-based; conditions: dose 10-20 mg/kg, time 3.0 day
MCF7 = assay: Antiproliferative activity against human MCF7 cells assessed as reduction in cell viability measured for 48 hrs by MTT assay; assay type: functional, cell-based; conditions: MCF7, 48 h
MDA-MB-231 [5] = assay: Antitumor activity against human MDA-MB-231 cells xenografted in nude mouse assessed as reduction in tumor growth at 10 to 20 mg/kg, ip measured for 3 days; assay type: functional, organism-based; conditions: dose 10-20 mg/kg, time 3.0 day
[6] = Toxicity in nude mouse xenografted with human MDA-MB-231 cells assessed as change in body weight at 10 to 20 mg/kg, ip measured for 3 days; assay type: organism-based; conditions: in vivo, 72 h, dose 10-20 mg/kg, time 3 day
K562 = assay: Antiproliferative activity against human K562 cells assessed as reduction in cell viability measured for 48 hrs by MTT assay; assay type: functional, cell-based; conditions: K562, 48 h
NCI-H1299 = assay: Antiproliferative activity against human NCI-H1299 cells assessed as reduction in cell viability measured for 48 hrs by MTT assay; assay type: functional, cell-based; conditions: NCI-H1299, 48 h
[7] = molecular target: Casein kinase I isoform epsilon (Homo sapiens, UniProt P49674); assay: Inhibition of CK1epsilon (unknown origin)
MDA-MB-231 [8] = assay: Antitumor activity against human MDA-MB-231 cells xenografted in nude mouse assessed as decrease in CD31 expression at 10 mg/kg, ip measured for 3 days by immunohistochemistry analysis; assay type: functional, organism-based; conditions: time 3.0 day
HCT-116 = assay: Antiproliferative activity against human HCT-116 cells assessed as reduction in cell viability measured for 48 hrs by MTT assay; assay type: functional, cell-based; conditions: HCT-116, 48 h
MDA-MB-231 [9] = assay: Induction of apoptosis in human MDA-MB-231 cells assessed as apoptotic cells at 40 uM incubated for 48 hrs by Annexin V-FITC/PI staining based analysis; assay type: functional
MDA-MB-468 = assay: Antiproliferative activity against human MDA-MB-468 cells assessed as reduction in cell viability measured for 48 hrs by MTT assay; assay type: functional, cell-based; conditions: MDA-MB-468, 48 h
PC-3 = assay: Antiproliferative activity against human PC-3 cells assessed as reduction in cell viability measured for 48 hrs by MTT assay; assay type: functional, cell-based; conditions: PC-3, 48 h
HepG2 = assay: Antiproliferative activity against human HepG2 cells assessed as reduction in cell viability measured for 48 hrs by MTT assay; assay type: functional, cell-based; conditions: HepG2, 48 h
MDA-MB-231 [10] = assay: Inhibition of cell migration human MDA-MB-231 cells assessed as migration distance at 25 uM incubated for 24 hrs by wound healing assay (reference value: 642.72 micrometer); assay type: functional
[11] = molecular target: Dual specificity protein kinase CLK1 (Homo sapiens, UniProt P49759); assay: Inhibition of CLK1 (unknown origin)
MDA-MB-231 [12] = assay: Inhibition of cell migration human MDA-MB-231 cells assessed as migration distance at 25 uM incubated for 48 hrs by wound healing assay (reference value: 642.72 micrometer); assay type: functional
MDA-MB-231 [13] = assay: Antiproliferative activity against human MDA-MB-231 cells assessed as reduction in cell viability measured for 48 hrs by MTT assay; assay type: functional, cell-based; conditions: MDA-MB-231, 48 h
HUVEC = assay: Antiangiogenesis activity in HUVEC cells at 62.5 nM incubated for 12 hrs by microscopic analysis; assay type: functional, cell-based; conditions: Homo sapiens
MDA-MB-231 [14] = assay: Inhibition of cell migration human MDA-MB-231 cells at 0.01 to 0.4 uM incubated for 24 hrs by DAPI staining based analysis; assay type: functional; conditions: dose 0.01-0.4 µM
MDA-MB-231 [15] = assay: Antitumor activity against human MDA-MB-231 cells xenografted in nude mouse assessed as inhibition of proliferation of tumor cells at 10 mg/kg, ip measured for 3 days by H and E staining based analysis; assay type: functional, organism-based; conditions: time 3.0 day
[16] = molecular target: Dual specificity tyrosine-phosphorylation-regulated kinase 1A (Homo sapiens, UniProt Q13627); assay: Inhibition of DYRK1A (unknown origin)
MDA-MB-231 [17] = assay: Antitumor activity against human MDA-MB-231 cells xenografted in nude mouse assessed as inhibition of spleen metastasis in tumor at 10 mg/kg, ip measured for 3 days; assay type: functional, organism-based; conditions: time 3.0 day
[18] = Inhibition of PI3K/AKT/mTOR signaling pathway in human MDA-MB-231 cells assessed as decrease in mTOR phosphorylation at 1 to 4 uM incubated for 6 hrs by Western blot analysis; assay type: cell-based; conditions: dose 1-4 µM
[19] = Antiproliferative activity against human HEK293 cells assessed as reduction in cell viability measured for 48 hrs by MTT assay; assay type: toxicity, cell-based
MDA-MB-231 [20] = assay: Induction of apoptosis in human MDA-MB-231 cells assessed as apoptotic cells at 4 uM incubated for 12 hrs by Annexin V-FITC/PI staining based analysis; assay type: functional
[21] = Antiproliferative activity against human HUVEC cells assessed as reduction in cell viability measured for 48 hrs by MTT assay; assay type: toxicity, cell-based
Cell membrane = assay: Induction of mitochondrial membrane potential loss in human MDA-MB-231 cells assessed as increase in fluorescence intensity at 40 uM incubated for 48 hrs by TMRM dye based flow cytometry analysis (reference value: 97.5%)
MDA-MB-231 [22] = assay: Induction of apoptosis in human MDA-MB-231 cells assessed as apoptotic cells at 4 uM incubated for 24 hrs by Annexin V-FITC/PI staining based analysis; assay type: functional
[23] = Inhibition of PI3K/AKT/mTOR signaling pathway in human MDA-MB-231 cells assessed as decrease in AKT phosphorylation at 1 to 4 uM incubated for 6 hrs by Western blot analysis; assay type: cell-based; conditions: dose 1-4 µM
[24] = molecular target: Cyclin-dependent kinase 7 (Homo sapiens, UniProt P50613); assay: Inhibition of CDK7 (unknown origin)
MDA-MB-231 [25] = assay: Induction of apoptosis in human MDA-MB-231 cells assessed as increase in number of cell debris at 4 uM incubated for 48 hrs; assay type: functional, cell-based
MDA-MB-231 [26] = assay: Induction of apoptosis in human MDA-MB-231 cells assessed as apoptotic cells at 40 uM incubated for 12 hrs by Annexin V-FITC/PI staining based analysis; assay type: functional
[27] = molecular target: Dual specificity protein kinase CLK4 (Homo sapiens, UniProt Q9HAZ1); assay: Inhibition of CLK4 (unknown origin)
MDA-MB-231 [28] = assay: Antitumor activity against human MDA-MB-231 cells xenografted in nude mouse assessed as inhibition of lung metastasis in tumor at 10 mg/kg, ip measured for 3 days; assay type: functional, organism-based; conditions: time 3.0 day
HT-29 = assay: Antiproliferative activity against human HT-29 cells assessed as reduction in cell viability measured for 48 hrs by MTT assay; assay type: functional, cell-based; conditions: HT-29, 48 h

Chain of Dual specificity protein kinase CLK1 (P49759 whole entry): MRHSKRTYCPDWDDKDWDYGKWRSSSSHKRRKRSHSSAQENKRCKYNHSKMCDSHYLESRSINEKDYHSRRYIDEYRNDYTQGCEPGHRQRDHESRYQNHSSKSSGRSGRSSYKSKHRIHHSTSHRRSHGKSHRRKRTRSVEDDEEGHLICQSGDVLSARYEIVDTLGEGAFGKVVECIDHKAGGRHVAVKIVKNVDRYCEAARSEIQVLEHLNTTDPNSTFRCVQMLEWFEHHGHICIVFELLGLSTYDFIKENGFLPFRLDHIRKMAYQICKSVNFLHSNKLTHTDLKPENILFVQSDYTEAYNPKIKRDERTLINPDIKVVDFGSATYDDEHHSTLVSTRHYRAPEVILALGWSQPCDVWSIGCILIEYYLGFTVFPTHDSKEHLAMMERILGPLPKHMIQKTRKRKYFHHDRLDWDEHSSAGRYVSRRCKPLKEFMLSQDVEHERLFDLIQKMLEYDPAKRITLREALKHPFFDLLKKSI
Chain of Casein kinase I isoform epsilon (P49674 whole entry, canonical isoform): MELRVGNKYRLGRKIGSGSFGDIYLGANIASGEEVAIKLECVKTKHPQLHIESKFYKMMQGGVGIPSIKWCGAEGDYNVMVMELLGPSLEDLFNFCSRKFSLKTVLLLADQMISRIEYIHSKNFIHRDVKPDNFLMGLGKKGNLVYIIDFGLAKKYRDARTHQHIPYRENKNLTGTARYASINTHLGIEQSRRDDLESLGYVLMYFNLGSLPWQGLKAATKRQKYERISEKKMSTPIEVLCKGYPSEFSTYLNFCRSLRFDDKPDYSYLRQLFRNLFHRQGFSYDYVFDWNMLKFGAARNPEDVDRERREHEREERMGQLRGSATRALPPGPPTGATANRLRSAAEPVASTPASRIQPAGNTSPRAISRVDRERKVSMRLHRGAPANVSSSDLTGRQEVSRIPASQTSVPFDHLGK
Chain of Cyclin-dependent kinase 7 (P50613 whole entry): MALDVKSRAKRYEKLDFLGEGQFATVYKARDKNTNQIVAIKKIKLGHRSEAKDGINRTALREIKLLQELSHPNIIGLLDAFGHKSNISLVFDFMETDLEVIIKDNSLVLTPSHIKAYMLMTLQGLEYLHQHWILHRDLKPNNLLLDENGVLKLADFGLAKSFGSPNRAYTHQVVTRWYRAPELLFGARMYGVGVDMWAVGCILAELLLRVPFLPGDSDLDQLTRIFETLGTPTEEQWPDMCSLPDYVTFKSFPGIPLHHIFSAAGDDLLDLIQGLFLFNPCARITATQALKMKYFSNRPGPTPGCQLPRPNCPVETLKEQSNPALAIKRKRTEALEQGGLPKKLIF
Chain of Dual specificity protein kinase CLK4 (Q9HAZ1 whole entry): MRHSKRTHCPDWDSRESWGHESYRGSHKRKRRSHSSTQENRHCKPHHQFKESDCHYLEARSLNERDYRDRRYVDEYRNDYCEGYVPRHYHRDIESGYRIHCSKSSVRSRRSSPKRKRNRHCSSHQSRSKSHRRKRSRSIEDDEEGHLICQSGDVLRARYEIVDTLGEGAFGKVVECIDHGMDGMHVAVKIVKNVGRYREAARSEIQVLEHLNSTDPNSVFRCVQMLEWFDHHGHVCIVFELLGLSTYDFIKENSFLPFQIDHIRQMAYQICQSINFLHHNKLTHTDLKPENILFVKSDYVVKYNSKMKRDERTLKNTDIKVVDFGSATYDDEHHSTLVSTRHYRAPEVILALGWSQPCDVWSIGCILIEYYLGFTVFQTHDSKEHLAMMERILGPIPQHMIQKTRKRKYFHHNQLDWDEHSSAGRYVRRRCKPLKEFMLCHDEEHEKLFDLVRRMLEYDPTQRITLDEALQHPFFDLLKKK

With `OCCN1CCC(C2CCN(c3nc(NCc4ccc(F)c(Cl)c4)c4ncn(CC5CC5)c4n3)CC2)CC1` the Activity (MDA-MB-231 [1]) was “Active”, the Activity (MDA-MB-231 [2]) was about 100% and the Activity (MDA-MB-231 [3]) was 96.3%. For the same compound, the Activity (MDA-MB-231 [4]) was “Active”, the IC50 (MCF7) was 0.43 µM and the Activity (MDA-MB-231 [5]) was “Active”. For the same compound, the Activity [6] was “Non-Toxic”, the IC50 (K562) was 0.32 µM and the IC50 (NCI-H1299) was 4.28 µM. The IC50 [7] was 0.296 µM, the Activity (MDA-MB-231 [8]) was “Active” and the IC50 (HCT-116) was 0.34 µM. For the same compound, the Activity (MDA-MB-231 [9]) was over 95%, the IC50 (MDA-MB-468) was 2.82 µM and the IC50 (PC-3) was 2.43 µM. It also gave an IC50 (HepG2) of 1.68 µM, an Activity (MDA-MB-231 [10]) of 15.08 um and an IC50 [11] of 2.97 µM. The Activity (MDA-MB-231 [12]) was 23.48 um, the IC50 (MDA-MB-231 [13]) was 3.15 µM and the Activity (HUVEC) was “Active”. The inhibition (MDA-MB-231 [14]) was “Active”, the Activity (MDA-MB-231 [15]) was “Active” and the IC50 [16] was 3.89 µM. The Activity (MDA-MB-231 [17]) was “Active”, the inhibition [18] was “Active” and the IC50 at 48 h [19] was 4.32 µM. The Activity (MDA-MB-231 [20]) was 83.5%, the IC50 at 48 h [21] was 4.26 µM and the Activity (Cell membrane) was 24.5%. The Activity (MDA-MB-231 [22]) was 97.1%, the inhibition [23] was “Active” and the IC50 [24] was 2.32 µM. The Activity (MDA-MB-231 [25]) was “Active”, the Activity (MDA-MB-231 [26]) was over 95% and the IC50 [27] was 0.685 µM. The Activity (MDA-MB-231 [28]) was “Active” and the IC50 (HT-29) was 4.16 µM.
